The numbers were not newly measured in patent US20110105442A2, “MEANS AND METHODS FOR CONTROLLING COMMENSALES” (Biotechnology Research And Information Network, AG …, priority 2008, published 2011), which cites them from elsewhere.

Read-outs that look alike come from different tables or passages of the source.

The test system of the series is certain Gram-positive and Gram-negative bacteria including commensales of the skin. The note with it: Malmstrøm et al., 2002, biofilm not assayed.

Take `C/C=C/C1=CC(=O)[C@H](O)[C@H]1O` (stereo in doubt) [Terrein, 4,5-Dihydroxy-3-(1-propenyl)-2-cyclopenten-1-one]: the antibacterial activity result was “weak antibacterial activity”. Moreover, the antibacterial activity result (listed as terrein) was “weak to negligible activity”.
